Experimental data as given in patent US4277465A, “Adjuvant for promoting absorption of therapeutically active substances through the digestive tract” (Kyoto Yakuhin Kogyo Kabushiki Kaisha, priority 1978, dated 1981).
Values belong to the compound of their own block, whether it stands above or below them.

What was measured:
Type in all cases: in vivo
[1] = Rectal insulin suppositories (Recipes 21-34), glucose response; conditions: rectal suppository 6 I.U. insulin
Procedure: |Enamine derivative (I) | As indicated in | Table 12 […] The above components were used to prepare rectal suppositories in accordance with established pharmaceutical practice. The suppositories were administered to rabbits and dogs by rectal route. […] The test was conducted by the glucose oxidase method.

[2] = Rectal suppositories of AB-PC-Na with enamine derivative, concentration in blood; conditions: AB-PC-Na 75mg, dog
Procedure: These suppositories were rectally administered to dogs and the absorbabilities of the active components were investigated by measuring the blood concentrations. The blood concentrations were measured in conformity with the biological assay method in the Antibiotic Standard of Japan. The cup method was employed with Sarcina lutea for penicillins and Bacillus subtilis for cephalosporins.

[3] = Rectal insulin suppositories (Recipes 35-41), glucose response; conditions: rabbit 2.5-3kg; rectal suppository 6 I.U. insulin; enamine derivative 0.025g (5%)
Text: These suppositories were rectally administered to rabbits (R, 2.5-3kg) and dogs (D, 12-13kg).

[4] = Rectal suppositories of CET-Na with enamine derivative, concentration in blood; conditions: dog
Procedure: These suppositories were rectally administered to dogs and the absorbabilities of the active components were investigated by measuring the blood concentrations.
The blood concentrations were measured in conformity with the biological assay method in the Antibiotic Standard of Japan. The cup method was employed with Sarcina lutea for penicillins and Bacillus subtilis for cephalosporins.

[5] = enamine derivative 120mg (10%), base SB-W 1005mg
[6] = CET-Na 75mg, enamine derivative 60mg (5%), base Witepsol H-15 1065mg
[7] = enamine derivative 60mg (5%), base Witepsol H-15 1065mg
[8] = enamine derivative 120mg (10%), base Witepsol H-15 1005mg
[9] = CET-Na 500mg, enamine derivative 150mg (10%), base Witepsol H-15 850mg

- Concentration in blood, 15 min. [2, 5]: 1600 ng/mL
- Concentration in blood, 30 min. [2, 5]: 1500 ng/mL
- Concentration in blood, 60 min. [2, 5]: 740 ng/mL
- Concentration in blood, 120 min. [2, 5]: 400 ng/mL
SMILES: CCOC(=O)C=C(C)N[C@@H](Cc1c[nH]c2ccccc12)C(=O)[O-].[Na+] [Compound 27, α-N-(1-Methyl-2-ethoxycarbonylvinyl)-L-tryptophan sodium salt]
- Blood glucose response (6 I.U.) ([1]; rabbit, enamine derivative 10%): 30%
- Time course: Lowest level ([1]; rabbit, enamine derivative 10%): 60 to 90 min
- Time course: Onset ([1]; rabbit, enamine derivative 10%): 30 min
- Time course: Return to pre-medication level ([1]; rabbit, enamine derivative 10%): 180 min

SMILES: CCOC(=O)C=C(C)N[C@@H](CC(C)C)C(=O)[O-].[Na+] [Compound 21, N-(1-Methyl-2-ethoxycarbonylvinyl)-L-leucine sodium salt]
- Blood glucose response (6 I.U.) ([1]; dog, enamine derivative 1%): 35-45%
- Time course: Lowest level ([1]; dog, enamine derivative 1%): 60 to 90 min
- Time course: Onset ([1]; dog, enamine derivative 1%): 30 min
- Time course: Return to pre-medication level ([1]; dog, enamine derivative 1%): 180 min

SMILES: CCOC(=O)C=C(C)NC(C(=O)[O-])c1ccccc1.[Na+] (racemic) [Compound 24, N-(1-Methyl-2-ethoxycarbonylvinyl)-DL-phenylglycine sodium salt]
- Time course: Lowest level ([1]; rabbit, enamine derivative 1%): 30 to 60 min
- Time course: Onset ([1]; rabbit, enamine derivative 1%): 15 min
- Time course: Return to pre-medication level ([1]; rabbit, enamine derivative 1%): 180 min

SMILES: CC(=CC(=O)OCC(O)CO)NCC(=O)[O-].[Na+] (stereo not drawn) [Compound 38, N-[1-Methyl-2-(2,3-dihydroxypropoxycarbonyl)vinyl]glycine sodium salt]
- Blood glucose response (6 I.U.) [3]: 45-55%
- Time course: Lowest level [3]: 45 to 60 min
- Time course: Onset [3]: 15 min
- Time course: Return to pre-medication level [3]: 150 min

SMILES: CCOC(=O)C=C(C)N[C@H](C(=O)[O-])[C@@H](C)O.[Na+] [Compound 22, N-(1-Methyl-2-ethoxycarbonylvinyl)-L-threonine sodium salt]
- Time course: Lowest level ([1]; rabbit, enamine derivative 5%): 45 to 75 min
- Time course: Onset ([1]; rabbit, enamine derivative 5%): 30 min
- Time course: Return to pre-medication level ([1]; rabbit, enamine derivative 5%): 180 min
- Concentration in blood, 15 min. [4, 6]: 750 ng/mL
- Concentration in blood, 30 min. [4, 6]: 570 ng/mL
- Concentration in blood, 60 min. [4, 6]: 310 ng/mL

SMILES: CCOC(=O)C=C(C)NC(C)C(=O)[O-].[Na+] (racemic) [Compound 18, N-(1-Methyl-2-ethoxycarbonylvinyl)-DL-alanine sodium salt]
- Time course: Lowest level ([1]; rabbit, enamine derivative 1%): 45 to 60 min
- Time course: Onset ([1]; rabbit, enamine derivative 1%): 30 min
- Time course: Return to pre-medication level ([1]; rabbit, enamine derivative 1%): 180 min

SMILES: CCOC(=O)C=C(C)N[C@@H](CCSC)C(=O)[O-].[Na+] [Compound 23, N-(1-Methyl-2-ethoxycarbonylvinyl)-L-methionine sodium salt]
- Time course: Lowest level ([1]; rabbit, enamine derivative 10%): 60 to 90 min
- Time course: Onset ([1]; rabbit, enamine derivative 10%): 30 min
- Time course: Return to pre-medication level ([1]; rabbit, enamine derivative 10%): 180 min
- Concentration in blood, 15 min. [2, 7]: 520 ng/mL
- Concentration in blood, 30 min. [2, 7]: 340 ng/mL
- Concentration in blood, 60 min. [2, 7]: 180 ng/mL
- Concentration in blood, 120 min. [2, 7]: 80 ng/mL

SMILES: CC(=CC(=O)NCCO)N[C@@H](Cc1ccccc1)C(=O)[O-].[Na+] [Compound 36, N-[1-Methyl-2-(2-hydroxyethylcarbamoyl)vinyl]-L-phenylalanine sodium salt]
- Blood glucose response (6 I.U.) [3]: 20-30%
- Time course: Lowest level [3]: 30 to 60 min
- Time course: Onset [3]: 15 min
- Time course: Return to pre-medication level [3]: 120 min
- Concentration in blood, 15 min. [2, 8]: 1450 ng/mL
- Concentration in blood, 30 min. [2, 8]: 1530 ng/mL
- Concentration in blood, 60 min. [2, 8]: 800 ng/mL
- Concentration in blood, 120 min. [2, 8]: 400 ng/mL

SMILES: CCOC(=O)C=C(C)N[C@@H](C)C(=O)[O-].[Na+] [Compound 19, N-(1-Methyl-2-ethoxycarbonylvinyl)-L-alanine sodium salt]
- Time course: Lowest level ([1]; rabbit, enamine derivative 1%): 45 to 60 min
- Time course: Onset ([1]; rabbit, enamine derivative 1%): 30 min
- Time course: Return to pre-medication level ([1]; rabbit, enamine derivative 1%): 180 min

SMILES: CCOC(=O)C=C(C)N[C@H](C(=O)[O-])[C@@H](C)CC.[Na+] [Compound 20, N-(1-Methyl-2-ethoxycarbonylvinyl)-L-isoleucine sodium salt]
- Blood glucose response (6 I.U.) ([1]; dog, enamine derivative 2%): 25-35%
- Time course: Lowest level ([1]; dog, enamine derivative 2%): 120 min
- Time course: Onset ([1]; dog, enamine derivative 2%): 60 to 90 min
- Time course: Return to pre-medication level ([1]; dog, enamine derivative 2%): 180 to 240 min
- Concentration in blood, 15 min. [4, 9]: 9000 ng/mL
- Concentration in blood, 30 min. [4, 9]: 6230 ng/mL
- Concentration in blood, 60 min. [4, 9]: 2910 ng/mL
- Concentration in blood, 120 min. [4, 9]: 1000 ng/mL

SMILES: CCOC(=O)C=C(C)N[C@@H](Cc1ccccc1)C(=O)[O-].[Na+] [Compound 25, N-(1-Methyl-2-ethoxycarbonylvinyl)-L-phenylalanine sodium salt]
- Time course: Lowest level ([1]; rabbit, enamine derivative 1%): 45 to 90 min
- Time course: Onset ([1]; rabbit, enamine derivative 1%): 30 min
- Time course: Return to pre-medication level ([1]; rabbit, enamine derivative 1%): 180 min

SMILES: CCOC(=O)C=C(C)N[C@@H](CO)C(=O)[O-].[Na+] [Compound 31, N-(1-Methyl-2-ethoxycarbonylvinyl)-L-serine sodium salt]
- Time course: Lowest level ([1]; rabbit, enamine derivative 10%): 60 to 90 min
- Time course: Onset ([1]; rabbit, enamine derivative 10%): 30 min
- Time course: Return to pre-medication level ([1]; rabbit, enamine derivative 10%): 180 min
- Concentration in blood, 15 min. [2, 7]: 700 ng/mL
- Concentration in blood, 30 min. [2, 7]: 380 ng/mL
- Concentration in blood, 60 min. [2, 7]: 240 ng/mL
- Concentration in blood, 120 min. [2, 7]: 90 ng/mL

SMILES: CCOC(=O)C=C(C)N[C@H](C(=O)[O-])C(C)C.[Na+] [Compound 26, N-(1-Methyl-2-ethoxycarbonylvinyl)-L-valine sodium salt]
- Time course: Lowest level ([1]; rabbit, enamine derivative 10%): 60 to 90 min
- Time course: Onset ([1]; rabbit, enamine derivative 10%): 30 min
- Time course: Return to pre-medication level ([1]; rabbit, enamine derivative 10%): 180 min

SMILES: CCOC(=O)C(C)OC(=O)C=C(C)NC(C)C(=O)[O-].[Na+] (racemic) [Compound 33, N-[1-Methyl-2-(1-ethoxycarbonyl-ethoxycarbonyl)vinyl]-DL-alanine sodium salt]
- Blood glucose response (6 I.U.) [3]: 45-55%
- Time course: Lowest level [3]: 45 to 60 min
- Time course: Onset [3]: 15 min
- Time course: Return to pre-medication level [3]: 150 min

SMILES: CC(=CC(=O)OC(C)C(=O)O)N[C@@H](CCCNC(=N)N)C(=O)O (stereo partly drawn) [Compound 35, α-N-(1-Methyl-2-(1-carboxy-ethoxycarbonyl)vinyl]-L-arginine]
- Blood glucose response (6 I.U.) [3]: 20-30%
- Time course: Lowest level [3]: 30 to 60 min
- Time course: Onset [3]: 15 min
- Time course: Return to pre-medication level [3]: 120 min

SMILES: CCOC(=O)C=C(C)N[C@@H](Cc1c[nH]cn1)C(=O)[O-].[Na+] [Compound 28, α-N-(1-Methyl-2-ethoxycarbonylvinyl)-L-histidine sodium salt]
- Blood glucose response (6 I.U.) ([1]; rabbit, enamine derivative 10%): 30%
- Time course: Lowest level ([1]; rabbit, enamine derivative 10%): 60 to 90 min
- Time course: Onset ([1]; rabbit, enamine derivative 10%): 30 min
- Time course: Return to pre-medication level ([1]; rabbit, enamine derivative 10%): 180 min

SMILES: CCOC(=O)C=C(C)NCCCCCCCCCCC(=O)[O-].[Na+] [Compound 30, N-(1-Methyl-2-ethoxycarbonylvinyl)-11-aminoundecanoic acid sodium salt]
- Time course: Lowest level ([1]; rabbit, enamine derivative 10%): 60 to 90 min
- Time course: Onset ([1]; rabbit, enamine derivative 10%): 30 min
- Time course: Return to pre-medication level ([1]; rabbit, enamine derivative 10%): 180 min

SMILES: CCOC(=O)C=C(C)N[C@@H](CCCNC(=N)N)C(=O)O [Compound 29, α-N-(1-Methyl-2-ethoxycarbonylvinyl)-L-arginine]
- Blood glucose response (6 I.U.) ([1]; rabbit, enamine derivative 5%): 40-50%
- Time course: Lowest level ([1]; rabbit, enamine derivative 5%): 60 to 90 min
- Time course: Onset ([1]; rabbit, enamine derivative 5%): 15 min
- Time course: Return to pre-medication level ([1]; rabbit, enamine derivative 5%): 210 min
- Concentration in blood, 15 min. [2, 5]: 500 ng/mL
- Concentration in blood, 30 min. [2, 5]: 530 ng/mL
- Concentration in blood, 60 min. [2, 5]: 610 ng/mL
- Concentration in blood, 120 min. [2, 5]: 410 ng/mL
